Assay results taken from ChEMBL document CHEMBL3046339, “Insecticidal activity of Maytenus species (Celastraceae) nortriterpene quinone methides against codling moth, Cydia pomonella (L.) (Lepidoptera: tortricidae)” (2000).
≈ marks a conversion by molar mass, not a printed value.

Tests used:
Assay type in all cases: functional
Cydia pomonella [1] = assay: Insecticidal activity against Cydia pomonella (codling moth) at 18 mg/kg assessed as growth regulation measured as number of head capsules of larvae after 10 days of continuous exposure Rvb = (1.5 +/- 0.2%)
Cydia pomonella [2] = assay: Insecticidal activity against Cydia pomonella (codling moth) at 16 mg/kg assessed as growth regulation measured as number of head capsules of larvae after 10 days of continuous exposure Rvb = (1.5 +/- 0.2%)
Cydia pomonella [3] = assay: Insecticidal activity against Cydia pomonella (codling moth) assessed as mortality at 18 mg/kg diet topically measured after 5 days of continuous exposure (reference value: 0%); details: topical, 120 h
Cydia pomonella [4] = assay: Insecticidal activity against Cydia pomonella (codling moth) at 1 mg/kg assessed as growth regulation measured as number of head capsules of larvae after 5 days of continuous exposure (reference value: 0.2 +/- 0.2%)
Cydia pomonella [5] = assay: Antifeedant activity against Cydia pomonella (codling moth) at 20 mg/kg diet topically measured after 10 days of continuous exposure (reference value: 6.7 +/- 6.7%)
Cydia pomonella [6] = assay: Antifeedant activity against Cydia pomonella (codling moth) at 20 mg/kg diet topically measured after 5 days of continuous exposure (reference value: 6.7 +/- 6.7%)
Cydia pomonella [7] = assay: Antifeedant activity against Cydia pomonella (codling moth) at 8 mg/kg diet topically measured after 5 days of continuous exposure (reference value: 6.7 +/- 6.7%)
Cydia pomonella [8] = assay: Antifeedant activity against Cydia pomonella (codling moth) at 4 mg/kg diet topically measured after 5 days of continuous exposure (reference value: 6.7 +/- 6.7%)
Cydia pomonella [9] = assay: Antifeedant activity against Cydia pomonella (codling moth) at 2 mg/kg diet topically measured after 5 days of continuous exposure (reference value: 6.7 +/- 6.7%)
Cydia pomonella [10] = assay: Insecticidal activity against Cydia pomonella (codling moth) assessed as mortality treated diet topically measured after 10 days of continuous exposure; details: topical, 240 h
Cydia pomonella [11] = assay: Insecticidal activity against Cydia pomonella (codling moth) assessed as mortality at 16 mg/kg diet topically measured after 10 days of continuous exposure (reference value: 3.3 +/- 3.3%); details: topical, 240 h
Cydia pomonella [12] = assay: Insecticidal activity against Cydia pomonella (codling moth) assessed as mortality at 12 mg/kg diet topically measured after 10 days of continuous exposure (reference value: 3.3 +/- 3.3%); details: topical, 240 h
Cydia pomonella [13] = assay: Insecticidal activity against Cydia pomonella (codling moth) at 18 mg/kg assessed as growth regulation measured as number of head capsules of larvae after 5 days of continuous exposure (reference value: 0.2 +/- 0.2%)
Cydia pomonella [14] = assay: Insecticidal activity against Cydia pomonella (codling moth) at 12 mg/kg assessed as growth regulation measured as number of head capsules of larvae after 5 days of continuous exposure (reference value: 0.2 +/- 0.2%)
Cydia pomonella [15] = assay: Insecticidal activity against Cydia pomonella (codling moth) at 8 mg/kg assessed as growth regulation measured as number of head capsules of larvae after 5 days of continuous exposure (reference value: 0.2 +/- 0.2%)
Cydia pomonella [16] = assay: Insecticidal activity against Cydia pomonella (codling moth) at 4 mg/kg assessed as growth regulation measured as number of head capsules of larvae after 5 days of continuous exposure (reference value: 0.2 +/- 0.2%)
Cydia pomonella [17] = assay: Insecticidal activity against Cydia pomonella (codling moth) assessed as mortality at 2 mg/kg diet topically measured after 10 days of continuous exposure (reference value: 3.3 +/- 3.3%); details: topical, 240 h
Cydia pomonella [18] = assay: Insecticidal activity against Cydia pomonella (codling moth) assessed as mortality at 20 mg/kg diet topically measured after 5 days of continuous exposure (reference value: 0%); details: topical, 120 h
Cydia pomonella [19] = assay: Insecticidal activity against Cydia pomonella (codling moth) assessed as mortality at 16 mg/kg diet topically measured after 5 days of continuous exposure (reference value: 0%); details: topical, 120 h
Cydia pomonella [20] = assay: Insecticidal activity against Cydia pomonella (codling moth) assessed as mortality at 12 mg/kg diet topically measured after 5 days of continuous exposure (reference value: 0%); details: topical, 120 h

CC1=C(O)C(=O)C=C2C1=CC=C1[C@@]2(C)CC[C@@]2(C)[C@@H]3C[C@](C)(O)C(=O)C[C@]3(C)CC[C@]12C [20ALPHA-HYDROXYTINGENONE]
Activity (Cydia pomonella [1]): 0 | Activity (Cydia pomonella [2]): 0 | mortality at 18 mg/kg (Cydia pomonella [3]): 86.7% | Activity (Cydia pomonella [4]): 0.1 | Activity (Cydia pomonella [5]): 100% | Activity (Cydia pomonella [6]): 100% | Activity (Cydia pomonella [7]): 100% | Activity (Cydia pomonella [8]): 46.7% | Activity (Cydia pomonella [9]): 36.7% | LC50 (Cydia pomonella [10]): 8500 µg/mL (≈ 19.5 mM) | mortality at 16 mg/kg (Cydia pomonella [11]): 93.3% | mortality at 12 mg/kg (Cydia pomonella [12]): 60% | Activity (Cydia pomonella [13]): 0 | Activity (Cydia pomonella [14]): 0 | Activity (Cydia pomonella [15]): 0 | Activity (Cydia pomonella [16]): 0 | mortality at 2 mg/kg (Cydia pomonella [17]): 0% | mortality at 20 mg/kg (Cydia pomonella [18]): 100% | mortality at 16 mg/kg (Cydia pomonella [19]): 60% | mortality at 12 mg/kg (Cydia pomonella [20]): 53.3%
